This is an account of results in patent US20160279166A1, “TREATING AGENT AND TREATING METHOD FOR THE EXAMINATION OR OPERATION OF THE LARGE INTESTINE” (KYOWA CHEMICAL INDUSTRY CO., LTD., priority 2013, published 2016).

One experiment relates to large intestine. The experiment can be described thus: CT examination of the large intestine: evaluation of remaining feces, remaining water and overall evaluation after pretreatment. Type of experiment: in vivo, human. The following applies: conclusion from CT overall evaluation. The procedure: The large intestine is divided into 6 parts in order to evaluate remaining feces and remaining water in each part in five stages from an image of the large intestine at a supine position (SU) and a lateral recumbent position (PR) obtained from CT examination. Further, overall evaluation was carried out from the obtained evaluation results.
The large intestine is divided into the following six parts.
C: appendix A: ascending colon T: transverse colon D: descending colon S: sigmoid colon R: rectum
The remaining feces were evaluated in five stages according to the existence of movement and a shape change.
0: difficult to evaluate 1: sticks to a mucous membrane 2: no movement and no shape change 3: moved and changed in shape 4: almost no remaining feces
The remaining water was evaluated in the following five stages according to its proportion to the circumference.
0: 4/4 of the circumference is under water (complete submersion). 1: 3/4 of the circumference is under water 2: 2/4 of the circumference is under water 3: 1/4 of the circumference is under water (submersion of semilunar pleat) 4: almost no submersion
The overall evaluation was made in the following five stages.
0: not useful 1: it cannot be said whether it is useful or not 2: rather useful 3: useful 4: very useful
3 g of MgO for each examination was divided in two portions to be administered as the pretreatment of the examination. […]

For experiment [1], the system named is rats. The experiment can be described thus: Defecation state (soft stool) of rats 9 hours after administration. Type of experiment: in vivo, rat. The settings on record: oral, after 9 hours, magnesium oxide 700 mg/kg, fiber powders 4500 mg/kg, fiber liquid 4500 mg/kg as administered. The procedure:
(§1) Magnesium oxide particles and water-soluble dietary fibers were administered to rats for animal testing to check the defecation states after 9 hours. Laparotomy was made on the rats after 9 hours to measure the amount of remaining feces, the amount of dry feces and the content of water in the intestinal tract.
(§2) A preparation containing 1.4 g of magnesium oxide particles and 9 g of water-soluble dietary fiber powders was used to administer 700 mg/kg of the magnesium oxide particles and 4,500 mg/kg of the water-soluble dietary fiber powders to rats. The magnesium oxide in use was magnesium oxide particles having an average secondary particle diameter specified in the present invention. The water-soluble dietary fibers in use were reduced indigestible dextrin specified in the present invention.
The total suspension liquid doses to test groups were fixed. […] The defecation state was checked after 9 hours, and the amount of remaining feces, the amount of dry feces and the content of water in the large intestine of each rat were measured to evaluate the effects on the properties of feces of the magnesium oxide particles and the water-soluble dietary fibers.

In experiment [2] the test system is rats. The experiment can be described thus: Laparotomy of rats after 9 hours: remaining feces, dry feces and water content in the large intestinal tract. In kind it is in vivo, rat. The procedure: as §1, §2
The total suspension liquid doses to test groups were fixed. When the magnesium oxide particles and a mixture of the magnesium oxide particles and the water-soluble dietary fiber powders were administered, 5 ml/kg of them was administered, and when they were not administered, 0.05% CMC-NA was administered. When the water-soluble dietary fiber liquid was administered, 10 ml/kg of it was administered and when the water-soluble dietary fiber liquid was not administered, 10 ml/kg of water was administered. The defecation state was checked after 9 hours, and the amount of remaining feces, the amount of dry feces and the content of water in the large intestine of each rat were measured to evaluate the effects on the properties of feces of the magnesium oxide particles and the water-soluble dietary fibers.

The test system of experiment [3] is rats. The experiment can be described thus: Defecation state (diarrhea) of rats after 9 hours with varied amount of ingested water. In kind it is in vivo, rat. The settings on record: oral, magnesium oxide 700 mg/kg. The procedure:
Magnesium oxide particles were administered to rats for animal testing to check the defecation states after 9 hours. At this point, the amount of water to be taken was increased and decreased to evaluate the effect on laxative action of the amount of water to be taken.
A preparation containing magnesium oxide as an effective component and crystalline cellulose, croscarmellose and calcium stearate as additives was used. […] The magnesium oxide in use is magnesium oxide particles having an average secondary particle diameter specified in the present invention.
The defecation state of each test group was checked after 9 hours so as to calculate the water-like feces excretion rate and evaluate the effect on the properties of feces of the amount of ingested water when the magnesium oxide particles were administered.

[4] abbreviates: large intestinal tract after 9 hours, magnesium oxide 700 mg/kg, fiber powders 4500 mg/kg, fiber liquid 4500 mg/kg as administered.

For the compound `[O]=[Mg]` [Magnesium oxide particles, magnesium oxide], in the experiment on large intestine, the “effectiveness as a treating agent for the examination or operation of the large intestine (in words)” value is given as “extremely effective”. In the experiment with rats [1], the “Proportion having soft stool (number of rats having soft stool/number of test rats)” value is on record as 3/5. In the experiment with rats [2] (after 9 hours), the “amount of dry feces (in words)” value is “reduced” and the “content of water (in words)” value was “increased”. In the experiment on rats [2] (setting [4]), the “Amount of dry feces” value was 12%, the “Amount of remaining feces” value is 3.69 g and the Content of water came to 88%. The “Proportion causing diarrhea (number of rats suffering from diarrhea/number of test rats)” value in the experiment with rats [3] (water 1 mL/kg) was 3/5. The “Proportion causing diarrhea (number of rats suffering from diarrhea/number of test rats)” value in the experiment with rats [3] (water 10 mL/kg) is 4/5. For the same compound, the “Proportion causing diarrhea (number of rats suffering from diarrhea/number of test rats)” value in the experiment with rats [3] (water 35 mL/kg) is 5/5.
